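Growth conditions: 96-well plates. Treatment: test compound, 48 hours, 5 concentrations. Analysis: linear interpolation between bracketing concentrations; unreached endpoints set to highest concentration. Here, GI50 denotes the concentration required for 50% inhibition of growth.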 Activity calls are given as the source filed them. Cut-off read from the data, not from the text of the source: active = GI50 up to about 1.1 µM and inactive = higher.
Tests used:
Experiment in all cases: NCI tumour cell line growth inhibition, 48 h
[1] = tested on: ACHN
[2] = tested on: HT-29
[3] = tested on: CCRF-CEM
[4] = tested on: SK-OV-3
[5] = tested on: SF-295
[6] = tested on: MCF7
[7] = tested on: UO-31
[8] = tested on: HCC 2998
[9] = tested on: HOP-92
[10] = tested on: LOX IMVI
[11] = tested on: RPMI-8226
[12] = tested on: SK-MEL-2
[13] = tested on: CAKI-1
[14] = tested on: T47D
[15] = tested on: SK-MEL-5
[16] = tested on: NCI-H460
[17] = tested on: M14
[18] = tested on: PC-3
[19] = tested on: OVCAR-5

Measured: GI50

C=CCN1C(=O)/C(=C/c2ccccc2)NC1=S
inactive: [1] > 100 µM | [2] > 100 µM | [3] > 100 µM | [4] > 100 µM | [5] > 100 µM | [6] > 100 µM | [7] > 100 µM | [8] > 100 µM | [9] > 100 µM | [10] > 100 µM | [11] 48.5 µM | [12] > 100 µM | [13] > 100 µM | [14] > 100 µM | [15] 65.5 µM | [16] > 100 µM | [17] > 100 µM | [18] > 100 µM | [19] > 100 µM

C=CCN1C(=O)CNC1=S
inactive: [1] > 100 µM | [2] > 100 µM | [3] 5.35 µM | [4] > 100 µM | [5] > 100 µM | [6] > 100 µM | [7] > 100 µM | [8] > 100 µM | [9] > 100 µM | [10] > 100 µM | [11] > 100 µM | [12] > 100 µM | [13] > 100 µM | [14] > 100 µM | [15] > 100 µM | [16] > 100 µM | [17] > 100 µM | [18] > 100 µM | [19] > 100 µM

COc1ccc(SCc2cc(OC)c(OC)c(OC)c2)cc1OC
inactive: [1] 51.8 µM | [2] 67.6 µM | [3] 64.9 µM | [4] 50.1 µM | [5] 45.7 µM | [6] 28.8 µM | [7] 27.9 µM | [8] 50.9 µM | [9] 25.6 µM | [10] 51.4 µM | [11] 33.3 µM | [12] 23 µM | [13] 44.5 µM | [14] 13.4 µM | [15] 15.8 µM | [16] > 79.6 µM | [17] 64.1 µM | [18] 31.3 µM | [19] > 94.6 µM

CCOC(=O)c1c(-c2ccc(OC)cc2)c(C#N)c(=S)n(C2OC(COC(C)=O)C(OC(C)=O)C(OC(C)=O)C2OC(C)=O)c1-c1ccccc1 (stereo not given)
inactive: [1] > 100 µM | [2] > 100 µM | [3] > 100 µM | [4] > 100 µM | [5] > 100 µM | [6] > 100 µM | [7] > 100 µM | [8] > 100 µM | [9] 17.8 µM | [10] > 100 µM | [11] > 100 µM | [12] > 100 µM | [13] > 100 µM | [14] > 100 µM | [15] 40.6 µM | [16] > 100 µM | [17] > 100 µM | [18] > 100 µM | [19] > 100 µM

COC1=CC(=O)C[C@@H](C)[C@]12Oc1c(Cl)c(OC)cc(OC)c1C2=O [GRISEOFULVIN]
inactive: [1] 67.3 µM | [2] 16.8 µM | [3] 33.3 µM | [4] 35.4 µM | [5] 21.8 µM | [6] 9.62 µM | [7] 43.7 µM | [8] 17.2 µM | [9] > 34.3 µM | [10] 18.7 µM | [11] 19.4 µM | [12] > 71.6 µM | [13] 9.53 µM | [14] 38.2 µM | [15] 7.62 µM | [16] 28 µM | [17] 9.48 µM | [18] 10.8 µM | [19] > 91.6 µM

CCN(CC)CC1CCCCN1CC(=O)N1c2ccccc2NC(=O)c2ccccc21 (stereo not given)
inactive: [1] > 100 µM | [2] > 100 µM | [3] > 100 µM | [4] > 100 µM | [5] > 100 µM | [6] > 100 µM | [7] 23.9 µM | [8] > 100 µM | [9] > 100 µM | [10] > 100 µM | [11] > 100 µM | [12] > 100 µM | [13] > 100 µM | [14] > 100 µM | [15] > 100 µM | [16] > 100 µM | [17] > 100 µM | [18] > 100 µM | [19] > 100 µM

CCO[C@@]1(COCc2ccccc2)OC(=O)C[C@@H]1N1C(=O)OC[C@@H]1c1ccccc1
inactive: [1] > 100 µM | [2] > 100 µM | [3] > 100 µM | [4] > 100 µM | [5] > 100 µM | [6] > 100 µM | [7] > 100 µM | [8] > 100 µM | [9] > 100 µM | [10] > 100 µM | [11] > 100 µM | [12] > 100 µM | [13] 25.8 µM | [14] > 100 µM | [15] > 100 µM | [16] > 100 µM | [17] > 100 µM | [18] > 100 µM | [19] > 100 µM

C=CCc1cc(C=C(C#N)C#N)cc(OC)c1O
inactive: [1] > 100 µM | [2] > 100 µM | [3] 46.9 µM | [4] > 100 µM | [5] > 100 µM | [6] 53.1 µM | [7] > 100 µM | [8] > 10 µM | [9] 33.5 µM | [10] 50.2 µM | [11] 39.4 µM | [12] > 100 µM | [13] > 100 µM | [14] 38.9 µM | [15] 27.7 µM | [16] > 100 µM | [17] > 100 µM | [18] 35.8 µM | [19] > 100 µM

C=CC[C@@]1(OC(C)=O)C(=O)C(=O)OC1C1COC(C)(C)O1 (stereo not given in full)
inactive: [1] 16.6 µM | [2] 19.3 µM | [3] 6.04 µM | [4] 42.5 µM | [5] 32.4 µM | [6] 17.3 µM | [7] 17.6 µM | [8] 20.7 µM | [9] 14.6 µM | [10] 6.17 µM | [11] 12.4 µM | [12] 21.6 µM | [13] 2.08 µM | [14] 16 µM | [15] 16.6 µM | [16] 17.9 µM | [17] 15.7 µM | [18] 20.4 µM | [19] 19.8 µM

COC(=O)[C@@H]1C=C[C@H](OC2OC(COC(C)=O)C(OC(C)=O)C(OC(C)=O)C2OC(C)=O)n2c(=O)n(-c3ccccc3)c(=O)n21 (stereo not given in full)
inactive: [1] 1.72 µM | [2] 1.88 µM | [3] 1.48 µM | [4] 15.9 µM | [5] 10.8 µM | [6] 2.35 µM | [7] 2.24 µM | [8] 8 µM | [9] 1.77 µM | [10] 1.56 µM | [11] 1.47 µM | [12] 2.25 µM | [13] 1.2 µM | [14] 2.57 µM | [15] 2.56 µM | [16] 14 µM | [17] 2.36 µM | [18] 2.77 µM | [19] 6.27 µM

— ChEMBL document CHEMBL1201862, “PubChem BioAssay data set” (2004)
